One series deals with T1, 5-HT transporter (Rattus norvegicus, UniProt P31652).
T1 construct: frontal cortical membranes prepared from male S.D. rats; from tissue; host or cells: frontal cortical membranes of male Sprague-Dawley rats
Kind of series: Rat Brain 3H-Paroxetine Binding Assay (RB 5HT Transporter). The procedure:
Rat Brain ^3H-Paroxetine Binding Assay (RB 5HT Transporter)
This assay was used to determine a compound's affinity of the 5-HT transporter. […] Briefly, frontal cortical membranes prepared from male S.D. rats were incubated with ^3H-parxetine (0.1 nM) for 60 min. at 25° C. All tubes also contained either vehicle, test compound (one to eight concentrations), or a saturating concentration of fluoxetine (10 μM) to define […]. All reactions are terminated by the addition of ice cold Tris buffer followed by rapid filtration using a Tom Tech filtration device to separate bound from free ^3H-paroxetine.

Another series has as its target Human 5-HT Transporter (Homo sapiens, UniProt P31645). The series is described as follows: cell-based.
The target in another series is T2, human 5-HT1A receptors (Homo sapiens, UniProt P08908).
T2 construct: expressed in transfected cells
T2 sequence (P08908 1-422): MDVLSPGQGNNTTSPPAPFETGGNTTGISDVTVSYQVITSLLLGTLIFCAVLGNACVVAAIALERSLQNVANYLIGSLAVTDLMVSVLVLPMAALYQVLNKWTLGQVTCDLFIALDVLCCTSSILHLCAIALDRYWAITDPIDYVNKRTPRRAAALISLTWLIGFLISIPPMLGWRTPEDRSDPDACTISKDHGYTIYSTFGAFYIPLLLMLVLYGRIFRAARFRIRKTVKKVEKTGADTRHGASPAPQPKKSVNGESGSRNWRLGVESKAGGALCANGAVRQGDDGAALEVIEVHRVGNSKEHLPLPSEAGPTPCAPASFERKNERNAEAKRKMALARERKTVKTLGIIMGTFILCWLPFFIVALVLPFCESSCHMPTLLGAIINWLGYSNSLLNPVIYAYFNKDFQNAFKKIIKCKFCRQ
Kind of series: [3H] 8-OH-DPAT displacement from 5-HT1A receptor (CHO cells stably transfected). Format: binding. The settings on record: for inhibition at 1 µM: read-out: 5-HT1A % inhibition at 1 μM, cells marked * in the 5-HT1A column.

[1] abbreviates: rat frontal cortical membranes, 3H-paroxetine 0.1 nM, read-out: RB-5HT Transporter Ki.

The structures appear in SMILES notation. Where two headings read alike, the source gives them in different places.

T1 sequence (P31652 whole entry): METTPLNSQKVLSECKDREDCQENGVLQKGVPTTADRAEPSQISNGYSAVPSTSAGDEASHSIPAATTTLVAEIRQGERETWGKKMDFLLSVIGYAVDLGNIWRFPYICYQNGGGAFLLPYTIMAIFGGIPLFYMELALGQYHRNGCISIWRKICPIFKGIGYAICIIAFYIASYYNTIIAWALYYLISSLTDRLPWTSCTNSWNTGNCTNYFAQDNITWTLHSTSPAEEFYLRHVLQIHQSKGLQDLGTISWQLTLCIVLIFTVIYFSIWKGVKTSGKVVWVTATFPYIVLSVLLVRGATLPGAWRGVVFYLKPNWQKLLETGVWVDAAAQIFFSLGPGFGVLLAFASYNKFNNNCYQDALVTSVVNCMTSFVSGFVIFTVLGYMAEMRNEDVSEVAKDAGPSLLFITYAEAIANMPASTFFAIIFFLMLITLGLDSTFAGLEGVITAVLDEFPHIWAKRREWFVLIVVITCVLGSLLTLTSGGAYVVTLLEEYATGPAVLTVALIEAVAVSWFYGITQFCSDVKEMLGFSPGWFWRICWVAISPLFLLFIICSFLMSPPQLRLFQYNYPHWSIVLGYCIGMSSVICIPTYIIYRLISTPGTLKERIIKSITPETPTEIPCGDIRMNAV
Human 5-HT Transporter, sequence (P31645 whole entry): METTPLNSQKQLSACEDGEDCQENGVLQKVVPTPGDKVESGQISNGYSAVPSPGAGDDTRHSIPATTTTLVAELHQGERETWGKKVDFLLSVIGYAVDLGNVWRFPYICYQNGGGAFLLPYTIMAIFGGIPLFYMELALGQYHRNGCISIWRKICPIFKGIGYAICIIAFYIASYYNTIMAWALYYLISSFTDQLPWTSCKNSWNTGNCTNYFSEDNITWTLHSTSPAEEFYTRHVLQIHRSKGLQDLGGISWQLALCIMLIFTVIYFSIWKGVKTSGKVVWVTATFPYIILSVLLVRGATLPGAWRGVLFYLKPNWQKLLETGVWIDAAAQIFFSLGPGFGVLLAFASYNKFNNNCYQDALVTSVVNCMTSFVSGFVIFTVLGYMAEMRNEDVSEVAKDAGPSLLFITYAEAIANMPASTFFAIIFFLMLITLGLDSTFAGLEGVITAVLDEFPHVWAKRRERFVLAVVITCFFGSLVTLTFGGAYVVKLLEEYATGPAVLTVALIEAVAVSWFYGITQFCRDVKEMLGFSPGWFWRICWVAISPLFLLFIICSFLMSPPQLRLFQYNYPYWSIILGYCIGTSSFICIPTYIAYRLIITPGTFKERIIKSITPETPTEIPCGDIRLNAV
Procedure for Human 5-HT Transporter: On the day of assay, vehicle, excess of fluoxetine, or test compound is added to various wells on the plate. All wells then receive ^3H-5-HT and are incubated at 37° C. for 5 min. The wells are then washed with ice cold 50 mM Tris HCl (pH 7.4) buffer and aspirated to remove free ^3H-5-HT. 25 μl of 0.25 M NaOH is then added to each well to lyse the cells and 75 μl scintillation cocktail (Microscint™ 20) added prior to quantitation on a Packard TopCount machine. Tubes with vehicle represent total possible uptake, radioactivity counted in tubes with fluoxetine represent nonspecific binding/uptake and is subtracted from the total possible uptake to give total possible specific uptake. […] Specific uptake is then expressed as a % of control values and is analyzed using nonlinear regression analysis (Prizm) to determine IC50 values.

As a reminder, the Ki is the equilibrium dissociation constant of an inhibitor or competing ligand from its target. One may read the inhibition as the change of the read-out against control, counted positive when it falls. `Clc1ccc2occ(CCN3CC=C(c4cnc5ccccn45)CC3)c2c1` [Compound 44, 3-{1-[2-(5-chloro-1-benzofuran-3-yl)ethyl]-1,2,3,6-tetrahydropyridin-4-yl}imidazo[1,2-a]pyridine]: the Ki at 5-HT transporter worked out at 97 nM; at Human 5-HT Transporter, 63.8 nM. Also, the inhibition at 1 µM on human 5-HT1A receptors was found to be 44%.

Turning to `COc1cccc2c(CC(C)N3CC=C(c4c[nH]c5cc(F)ccc45)CC3)coc12` (centres unmarked) [Compound 42, 3-{1-[2-(7-methoxy-1-benzofuran-3-yl)-1-methylethyl]-1,2,3,6-tetrahydro-4-pyridinyl}-6-fluoro-1H-indole], the Ki was 3.74 nM on 5-HT transporter, 48.7 nM on Human 5-HT Transporter and 69.4 nM on human 5-HT1A receptors.

For the molecule `C=CCn1cc(C2=CCN(CCc3csc4ccccc34)CC2)c2ccccc21` [Compound 29, 3-{1-[2-(1-benzothiophene-3-yl)ethyl]-1,2,3,6-tetrahydro-4-pyridinyl}-1-(2-propenyl)-1H-indole], the Ki on 5-HT transporter (setting [1]) is 104 nM; on Human 5-HT Transporter it was 1120 nM; at human 5-HT1A receptors ([3H] 8-OH-DPAT displacement, CHO cells with human 5-HT1A, read-out: 5-HT1A Ki), 243 nM.

On to `c1ccc2c(c1)ccc1c(CCN3CCC(c4c[nH]c5ccccc45)CC3)coc12` [Compound 34, 3-{1-(2-Naphtho[1,2-b]furan-3-yl-ethyl)-piperidin-4-yl]-1H-indole], for which the figures for the Ki at 5-HT transporter (setting [1]) and on Human 5-HT Transporter were 62 nM and 276 nM, respectively. Further, the inhibition at 1 µM at human 5-HT1A receptors was 48%.

In the case of `CC(CN1CC=C(c2c[nH]c3ccc(F)cc23)CC1)c1coc2ccccc12` (centres unmarked) [Compound 37, 3-{1-[2-(1-benzofuran-3-yl)propyl]-1,2,3,6-tetrahydro-4-pyridinyl}-5-fluoro-1H-indole], the Ki at 5-HT transporter is 21 nM; at Human 5-HT Transporter it was 152 nM. Besides, the inhibition at 1 µM at human 5-HT1A receptors turned out to be 20%.

For `COc1cccc2c(CC(C)N3CC=C(c4c[nH]c5ccccc45)CC3)coc12` (centres unmarked) [Compound 41, 3-{1-[2-(7-methoxy-1-benzofuran-3-yl)-1-methylethyl]-1,2,3,6-tetrahydro-4-pyridinyl}-1H-indole], the Ki on 5-HT transporter was determined as 8.93 nM; at Human 5-HT Transporter it was 68.8 nM; at human 5-HT1A receptors, 11.5 nM.

Turning to `COc1ccc2occ(CC(C)N3CC=C(c4c[nH]c5ccccc45)CC3)c2c1` (centres unmarked) [Compound 43, 3-{1-[2-(5-methoxy-1-benzofuran-3-yl)-1-methylethyl]-1,2,3,6-tetrahydro-4-pyridinyl}-1H-indole], the figures for the Ki at 5-HT transporter and on Human 5-HT Transporter were 12 nM and 144 nM, respectively. In addition, the inhibition at 1 µM at human 5-HT1A receptors worked out at 34%.

Consider `Clc1ccc2scc(CCN3CC=C(c4c[nH]c5ccccc45)CC3)c2c1` [Compound 31, 3-{1-[2-(5-chloro-1-benzothiophene-3-yl)ethyl]-1,2,3,6-tetrahydro-4-pyridinyl}-1H-indole], for which the results for the Ki at 5-HT transporter (setting [1]) and at Human 5-HT Transporter were 172 nM and 2900 nM, respectively. On human 5-HT1A receptors, the inhibition at 1 µM is 29%.

What is called melting point is the temperature of the solid-liquid transition. On to `C1=C(c2c[nH]c3ccccc23)CCN(CCc2csc3ccccc23)C1` [Compound 28, 3-{1-[2-(1-benzothiophene-3-yl)ethyl]-1,2,3,6-tetrahydro-4-pyridinyl}-1H-indole], for which the melting point was 195 to 198 °C. In addition, the affinity at 5-HT transporter corresponds to a Ki of 6.25 nM. The molecule also yielded a Ki at Human 5-HT Transporter of 11.1 nM. Moreover, on human 5-HT1A receptors, the affinity corresponds to a Ki of 67.9 nM.

Molecule `COc1ccc2c(CCN3CC=C(c4c[nH]c5cc(C#N)ccc45)CC3)coc2c1` [Compound 13, 3-{1-[2-(6-methoxy-1-benzofuran-3-yl)ethyl]-1,2,3,6-tetrahydro-4-pyridinyl}-6-cyano-1H-indole] yielded a melting point of 181 °C. This molecule gave a Ki at 5-HT transporter of 3.36 nM. Besides, the Ki at Human 5-HT Transporter is 34.1 nM. Moreover, the Ki at human 5-HT1A receptors was 12.7 nM.

With `Cn1cc(C2=CCN(CCc3csc4ccccc34)CC2)c2ccccc21` [Compound 30, 3-{1-[2-(1-benzothiophene-3-yl)ethyl]-1,2,3,6-tetrahydro-4-pyridinyl}-1-methyl-1H-indole], the Ki on 5-HT transporter stood at 13 nM; at Human 5-HT Transporter it was 421 nM; at human 5-HT1A receptors, 53.1 nM.

Turning to `Cn1cc(C2=CCN(CCc3coc4ccccc34)CC2)c2ccccc21` [Compound 2, 3-{1-[2-(1-benzofuran-3-yl)ethyl]-1,2,3,6-tetrahydro-4-pyridinyl}-1-methyl-1H-indole], the Ki is 6 nM on 5-HT transporter and 18.3 nM on human 5-HT1A receptors.

As for `CC(CN1CC=C(c2c[nH]c3ccccc23)CC1)c1coc2ccccc12` (centres unmarked) [Compound 35, 3-{1-[2-(1-benzofuran-3-yl)propyl]-1,2,3,6-tetrahydro-4-pyridinyl}-1H-indole], the Ki on 5-HT transporter worked out at 16 nM; on Human 5-HT Transporter it was 130 nM. For the same molecule, at human 5-HT1A receptors, the inhibition at 1 µM amounted to 28%.

On 5-HT transporter, `Cn1cc(C2=CCN(CCc3csc4ccc(Cl)cc34)CC2)c2ccccc21` [Compound 33, 3-{1-[2-(5-chloro-1-benzothiophene-3-yl)ethyl]-1,2,3,6-tetrahydro-4-pyridinyl}-1-methyl-1H-indole] showed a Ki of 39 nM. Moreover, the inhibition at 1 µM at human 5-HT1A receptors stood at 45%.

With `C=CCn1cc(C2=CCN(CCc3csc4ccc(Cl)cc34)CC2)c2ccccc21` [Compound 32, 3-{1-[2-(5-chloro-1-benzothiophene-3-yl)ethyl]-1,2,3,6-tetrahydro-4-pyridinyl}-1-(2-propenyl)-1H-indole], the Ki at 5-HT transporter (setting [1]) was 132 nM. For the same molecule, on human 5-HT1A receptors, the inhibition at 1 µM was 34%.

Turning to `CC(CN1CC=C(c2c[nH]c3cc(F)ccc23)CC1)c1coc2ccccc12` (centres unmarked) [Compound 36, 3-{1-[2-(1-benzofuran-3-yl)propyl]-1,2,3,6-tetrahydro-4-pyridinyl}-6-fluoro-1H-indole], the Ki is 4.43 nM at 5-HT transporter and 42 nM on Human 5-HT Transporter. On human 5-HT1A receptors, the inhibition at 1 µM came out at 11%.

These data come from patent US7235569B2, “Piperidinyl indole and tetrohydropyridinyl indole derivatives and method of their use” (Wyeth, priority 2003, dated 2007).
